Results on 15 molecules are retold here after patent US20040110771A1, “7-(r)-aminotriazolopyrimidines, the production thereof and use of the same for combatting phytopathogenic fungi” (priority 2000, published 2004).

Holding throughout (assay type): in vivo
For one test, the system named is Septoria tritici. The test is described as follows: Protective activity against Septoria foliar blotch disease of wheat caused by Septoria tritici. Conditions: wheat seedlings "Riband", inoculated 24 h after spraying, 2 weeks. Here is the method:
The active compounds were prepared separately or jointly as a 10% strength emulsion in a mixture of 70% by weight of cyclohexanone, 20% by weight of Nekanil® LN (Lutensol® AP6, wetting agent having emulsifying and dispersing action based on ethoxylated alkylphenols) and 10% by weight of Wettol® EM (nonionic emulsifier based on ethoxylated castor oil) and diluted with water to the desired concentration.
Leaves of potted wheat seedlings of the cultivar “Riband” were sprayed to runoff point with an aqueous preparation of active compound which had been prepared from a stock solution made of 10% of active compound, 85% of cyclohexanone and 5% of emulsifier. 24 hours after the spray coating had dried on, they were inoculated with an aqueous spore suspension of Septoria tritici. The suspension contained 2.0×10^6 spores/ml. The test plants were then placed in a greenhouse at 18-22° C. and a relative atmospheric humidity of close to 100%. After 2 weeks, the extent of the development of the disease was determined visually in % infection of the entire leaf area.

Another test concerns Pyrenophora teres. The test is described as follows: Activity against net blotch of barley caused by Pyrenophora teres. Conditions: barley seedlings "Igri", inoculated 24 h after spraying, 6 days. The essentials: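 Potted barley seedlings (cv. Igri) were sprayed to runoff with aqueous compound preparation, then inoculated with P. teres spores 24 h after the spray dried. Plants were kept in a greenhouse at 20-24° C and 95-100% relative humidity, and disease was scored visually after 6 days as % infected leaf area.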

Test [1] relates to Blumeria graminis forma specialis tritici. The test is described as follows: Activity against mildew of wheat caused by Blumeria graminis forma specialis tritici. The note with it: wheat seedlings "Kanzler", dusted with spores 24 h after spraying, 7 days. In outline:
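Compound, emulsified then diluted in water, sprayed to runoff onto leaves of potted wheat seedlings cv. Kanzler; inoculated with Blumeria graminis f. sp. tritici spores 24 h after the coating dried. Plants kept in greenhouse at 20-24° C., 60-90% relative humidity; mildew scored visually after 7 days as % infected leaf area.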

For the next test, the system named is Puccinia recondita. Kind of test: Curative activity against brown rust of wheat caused by Puccinia recondita. The note with it: curative spray 24 h after inoculation, wheat seedlings "Kanzler", 7 days. The essentials: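 Wheat seedlings (cv. Kanzler) inoculated with brown rust spores and held 24 h at 90–95% humidity and 20–22°C, then sprayed to runoff with the emulsified compound the next day. Rust development on leaves scored after 7 days in greenhouse at 20–22°C and 65–70% relative humidity.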

Take `C[C@@H](Nc1c(-c2ccccc2Cl)c(Cl)nc2ncnn12)C(C)(C)C` (single isomer, unassigned) [I.-44b]: the “% infection of the leaves after application of an aqueous preparation comprising . . . ppm of active compound” value (from here on “% infection of the leaves”) in the test on Septoria tritici (16 ppm) is on record as 30%; in the test with Septoria tritici (63 ppm) it was 10%; with Septoria tritici (250 ppm) it was 10%.
In the case of `CC(C)C(C)Nc1c(-c2c(Cl)cccc2Cl)c(Cl)nc2ncnn12` (centres unmarked) [I.-8], the “% infection of the leaves” value stood at 70% in the test with Septoria tritici (16 ppm); 30% in the test with Septoria tritici (63 ppm); 30% in the test with Septoria tritici (250 ppm); 40% in the test with Pyrenophora teres (16 ppm); 15% with Pyrenophora teres (63 ppm); 15% with Pyrenophora teres (250 ppm).
Turning to `COc1cc(F)c(-c2c(Cl)nc3ncnn3c2N[C@H](C)C(C)C)c(F)c1` [I.-17], the “% infection of the leaves” value in the test with Septoria tritici (16 ppm) was 10%; in the test on Septoria tritici (63 ppm), 10%; with Septoria tritici (250 ppm), 10%; in test [1] (16 ppm), 60%; in test [1] (63 ppm) it was 60%; in test [1] (250 ppm) it was 60%.
For the molecule `COc1cc(F)c(-c2c(Cl)nc3ncnn3c2N[C@H](C)C(C)(C)C)c(F)c1` [I.-18], the “% infection of the leaves” value in the test on Septoria tritici (250 ppm) is recorded as 30%.
Consider `CCC(C)Nc1c(-c2c(F)c(F)c(F)c(F)c2F)c(Cl)nc2ncnn12` (centres unmarked) [I.-19], for which the “% infection of the leaves” value in the test on Septoria tritici (16 ppm) is listed as 50%; in the test with Septoria tritici (63 ppm), 10%; with Septoria tritici (250 ppm), 10%; in the test with Pyrenophora teres (250 ppm), 30%; in test [1] (63 ppm) it was 7%; in test [1] (250 ppm), 7%.
Turning to `CC(C)C(C)Nc1c(-c2ccccc2C(F)(F)F)c(Cl)nc2ncnn12` (centres unmarked) [I.-25], the “% infection of the leaves” value with Septoria tritici (16 ppm), in the test on Septoria tritici (63 ppm) and in the test on Septoria tritici (250 ppm) was 0% each time.
Turning to `CC(Nc1c(-c2ccccc2C(F)(F)F)c(Cl)nc2ncnn12)C(C)(C)C` (centres unmarked) [I.-26], the entries for the “% infection of the leaves” value in the test with Septoria tritici (16 ppm), in the test on Septoria tritici (63 ppm) and in the test with Septoria tritici (250 ppm) were 3%, 0% and 0%, respectively.
Take `CC(C)[C@H](C)Nc1c(-c2c(Cl)cccc2Cl)c(Cl)nc2ncnn12` [comparison (S)-amine of I.-8]: the “% infection of the leaves” value amounted to 90% in the test on Septoria tritici (16 ppm); 90% with Septoria tritici (63 ppm); 90% in the test on Septoria tritici (250 ppm); 100% in the test on Pyrenophora teres (16 ppm); 100% with Pyrenophora teres (63 ppm); 100% in the test with Pyrenophora teres (250 ppm).
For the molecule `COc1cc(F)c(-c2c(Cl)nc3ncnn3c2N[C@@H](C)C(C)C)c(F)c1` [comparison (S)-amine of I.-17], the “% infection of the leaves” value in the test on Septoria tritici (16 ppm) was 90%; with Septoria tritici (63 ppm), 90%; in the test on Septoria tritici (250 ppm) it was 90%; in test [1] (16 ppm), 100%; in test [1] (63 ppm), 100%; in test [1] (250 ppm), 100%.
In the case of `COc1cc(F)c(-c2c(Cl)nc3ncnn3c2N[C@@H](C)C(C)(C)C)c(F)c1` [comparison (S)-amine of I.-18], the “% infection of the leaves” value in the test on Septoria tritici (250 ppm) is reported as 80%.
In the case of `CCC(C)Nc1c(-c2ccc(F)cc2C)c(Cl)nc2ncnn12` [comparison (S)-amine of I.-22], the “% infection of the leaves” value in the test on Pyrenophora teres (16 ppm) came to 80%; in the test with Pyrenophora teres (63 ppm), 7%; in test [1] (16 ppm), 80%; in test [1] (63 ppm), 70%; in test [1] (250 ppm) it was 70%; in the test on Puccinia recondita (16 ppm) it was 100%. Further, the “% infection of the leaves” value with Puccinia recondita (63 ppm) and in the test with Puccinia recondita (250 ppm) was 100% each time.
As to `Cc1cc(F)ccc1-c1c(Cl)nc2ncnn2c1N[C@@H](C)C(C)C` [comparison (S)-amine of I.-23], the “% infection of the leaves” value in the test with Pyrenophora teres (16 ppm) is on record as 60%; in test [1] (16 ppm), 60%; in test [1] (63 ppm) it was 60%; in test [1] (250 ppm), 40%; in the test with Puccinia recondita (16 ppm), 100%; with Puccinia recondita (63 ppm) it was 100%. Also, in the test with Puccinia recondita (250 ppm), the “% infection of the leaves” value stood at 100%.
With `CC(C)[C@H](C)Nc1c(-c2ccccc2C(F)(F)F)c(Cl)nc2ncnn12` [comparison (S)-amine of I.-25], the “% infection of the leaves” value with Septoria tritici (16 ppm), in the test with Septoria tritici (63 ppm) and in the test on Septoria tritici (250 ppm) was 100% each time.
Consider `CC(Nc1c(-c2ccccc2C(F)(F)F)c(Cl)nc2ncnn12)C(C)(C)C` [comparison (S)-amine of I.-26], for which the “% infection of the leaves” value in the test on Septoria tritici (16 ppm), in the test with Septoria tritici (63 ppm) and with Septoria tritici (250 ppm) was 100% each time.
With `CC(Nc1c(-c2ccccc2Cl)c(Cl)nc2ncnn12)C(C)(C)C` [comparison (S)-amine of I.-44b], the “% infection of the leaves” value with Septoria tritici (16 ppm), in the test with Septoria tritici (63 ppm) and in the test with Septoria tritici (250 ppm) was 80% each time.
